This note sets out measurements from PMC8667902 (Journal of Enzyme Inhibition and Medicinal Chemistry, 2021).

In data set [1] the target is T1, ratAChE (Rattus norvegicus, UniProt P37136).
T1 sequence (P37136 32-614): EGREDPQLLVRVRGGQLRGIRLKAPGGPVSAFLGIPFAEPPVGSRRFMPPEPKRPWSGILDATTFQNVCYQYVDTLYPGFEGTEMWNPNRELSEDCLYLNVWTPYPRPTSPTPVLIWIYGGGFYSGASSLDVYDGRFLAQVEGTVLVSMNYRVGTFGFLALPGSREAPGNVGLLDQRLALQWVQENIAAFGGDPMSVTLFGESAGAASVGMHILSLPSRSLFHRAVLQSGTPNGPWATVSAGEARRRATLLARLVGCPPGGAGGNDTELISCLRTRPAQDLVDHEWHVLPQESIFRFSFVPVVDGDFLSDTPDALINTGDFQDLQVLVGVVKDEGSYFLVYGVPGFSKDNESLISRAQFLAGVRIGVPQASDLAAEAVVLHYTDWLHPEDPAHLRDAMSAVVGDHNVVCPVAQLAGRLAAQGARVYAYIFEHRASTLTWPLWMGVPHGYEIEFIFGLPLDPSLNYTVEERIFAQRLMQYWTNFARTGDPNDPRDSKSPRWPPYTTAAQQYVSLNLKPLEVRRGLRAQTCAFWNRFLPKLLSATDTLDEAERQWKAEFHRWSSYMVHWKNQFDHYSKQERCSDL
As to the kind of experiment: Ellman's method, AChE from rat cortex homogenate. The format is biochemical. The settings on record: for SI = Selectivity index = IC50 (BuChE)/IC50 (AChE): ratBuChE over rat AChE. On the technique in general: In Ellman's method for cholinesterases, released thiocholine reacts with DTNB.

The target of data set [2] is eeAChE (Electrophorus electricus, UniProt O42275). The data set is described as follows: Ellman's method, electric eel AChE. Type of data set: biochemical.
In data set [3] the target is ratBuChE (Rattus norvegicus, UniProt Q9JKC1). As to the kind of experiment: Ellman's method, BuChE from rat serum. Type of data set: biochemical.
A short description of data set [4]: Oxygen Radicals Absorbance Capacity by Fluorescence. The settings on record: for ORAC: Trolox as reference.
For data set [5], the target named is T2, Aβ1–42 (Homo sapiens, UniProt P05067). As to the kind of experiment: Inhibition of self-induced Aβ1–42 aggregation. Type of data set: biochemical. The settings on record: read-out: Inhibition of Aβ1–42 aggregation (%) Self-induced, 25 μM; ThT assay.
The target in data set [6] is T2, Aβ1–42. The data set is described as follows: Inhibition of Cu2+-induced Aβ1–42 aggregation. The format is biochemical. Particulars: read-out: Inhibition of Aβ1–42 aggregation (%) Cu^2+-induced.
The target of data set [7] is T3, Aβ1–42 fibrils (Homo sapiens, UniProt P05067). The data set is described as follows: Disaggregation of self-induced Aβ1–42 aggregation. The format is biochemical. Particulars: 25 μM; ThT assay.
Data set [8] has as its target T3, Aβ1–42 fibrils. As to the kind of experiment: Disaggregation of Cu2+-induced Aβ1–42 aggregation. Particulars: 25 μM; ThT assay. Type of data set: biochemical.
For data set [9], the target named is T4, huMAO-B (Homo sapiens, UniProt P27338).
T4 sequence (P27338 1-520): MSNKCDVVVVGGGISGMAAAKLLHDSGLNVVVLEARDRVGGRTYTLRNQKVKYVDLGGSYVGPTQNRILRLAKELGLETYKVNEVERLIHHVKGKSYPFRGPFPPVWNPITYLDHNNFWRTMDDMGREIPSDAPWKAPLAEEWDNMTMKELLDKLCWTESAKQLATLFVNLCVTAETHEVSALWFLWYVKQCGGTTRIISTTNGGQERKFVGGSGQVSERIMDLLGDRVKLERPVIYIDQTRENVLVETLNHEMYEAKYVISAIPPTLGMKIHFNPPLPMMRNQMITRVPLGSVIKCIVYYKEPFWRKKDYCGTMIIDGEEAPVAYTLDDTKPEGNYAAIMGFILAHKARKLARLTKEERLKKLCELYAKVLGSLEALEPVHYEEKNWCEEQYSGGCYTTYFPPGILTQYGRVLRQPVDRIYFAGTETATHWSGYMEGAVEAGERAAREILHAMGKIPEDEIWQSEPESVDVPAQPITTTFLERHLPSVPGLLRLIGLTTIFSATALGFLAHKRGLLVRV
As to the kind of experiment: biochemical. Particulars: for inhibition at 10 µM: read-out: MAO-B percent inhibition rate.

Data set [10] addresses T5, huMAO-A (Homo sapiens, UniProt P21397).
T5 sequence (P21397 1-527): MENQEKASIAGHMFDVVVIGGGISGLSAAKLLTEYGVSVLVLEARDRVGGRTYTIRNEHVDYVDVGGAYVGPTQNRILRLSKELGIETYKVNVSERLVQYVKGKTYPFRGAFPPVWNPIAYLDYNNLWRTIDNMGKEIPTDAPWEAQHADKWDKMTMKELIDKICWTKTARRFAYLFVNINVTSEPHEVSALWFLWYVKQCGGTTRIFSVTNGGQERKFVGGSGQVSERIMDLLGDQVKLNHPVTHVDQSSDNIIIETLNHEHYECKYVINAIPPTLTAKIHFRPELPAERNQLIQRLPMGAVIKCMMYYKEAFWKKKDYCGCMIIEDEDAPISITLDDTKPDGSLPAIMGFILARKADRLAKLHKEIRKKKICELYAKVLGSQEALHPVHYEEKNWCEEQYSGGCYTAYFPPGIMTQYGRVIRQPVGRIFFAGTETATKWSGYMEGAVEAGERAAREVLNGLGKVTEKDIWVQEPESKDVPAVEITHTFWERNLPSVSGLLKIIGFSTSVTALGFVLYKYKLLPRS
The data set is described as follows: huMAO-A inhibition, fluorescence method. Type of data set: biochemical. The settings on record: for inhibition at 10 µM: read-out: MAO-A percent inhibition rate.

The nature of data set [11]: Metal chelation by UV-vis spectrometry and molar ratio method. Particulars: 37.5 μM. Type of data set: physicochemical.
The subject of data set [12] is PC12 cells. As to the kind of experiment: Neuroprotection against H2O2-induced PC12 cell injury, LDH assay. The format is cell-based. Particulars: PC12, 100 µM H2O2, compound 100 µM; H2O2 alone 712.7, vehicle 602.3.
[13] abbreviates: peak of compound alone: 9d 362 nm, 17f 350 nm.

Structures are written as SMILES.

T2 sequence (P05067 672-713): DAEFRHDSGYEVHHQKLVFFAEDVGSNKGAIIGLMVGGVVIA
T3 sequence (P05067 672-713): as above
Sequence of ratBuChE (Q9JKC1 24-597): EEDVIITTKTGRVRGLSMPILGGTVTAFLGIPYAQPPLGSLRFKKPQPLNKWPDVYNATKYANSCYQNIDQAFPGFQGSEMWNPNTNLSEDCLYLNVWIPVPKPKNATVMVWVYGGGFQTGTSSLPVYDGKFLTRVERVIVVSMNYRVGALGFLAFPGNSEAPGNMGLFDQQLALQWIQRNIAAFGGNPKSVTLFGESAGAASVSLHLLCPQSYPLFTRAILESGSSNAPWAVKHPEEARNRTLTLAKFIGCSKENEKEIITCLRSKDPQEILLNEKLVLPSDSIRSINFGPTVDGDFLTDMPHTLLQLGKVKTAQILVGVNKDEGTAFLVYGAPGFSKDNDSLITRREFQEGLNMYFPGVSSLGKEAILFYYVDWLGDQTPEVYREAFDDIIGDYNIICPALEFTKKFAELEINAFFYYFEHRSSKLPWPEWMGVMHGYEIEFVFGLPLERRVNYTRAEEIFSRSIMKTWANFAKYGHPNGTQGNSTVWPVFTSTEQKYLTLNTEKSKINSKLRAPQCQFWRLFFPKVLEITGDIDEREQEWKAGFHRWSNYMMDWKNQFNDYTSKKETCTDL
Sequence of eeAChE (O42275 24-633): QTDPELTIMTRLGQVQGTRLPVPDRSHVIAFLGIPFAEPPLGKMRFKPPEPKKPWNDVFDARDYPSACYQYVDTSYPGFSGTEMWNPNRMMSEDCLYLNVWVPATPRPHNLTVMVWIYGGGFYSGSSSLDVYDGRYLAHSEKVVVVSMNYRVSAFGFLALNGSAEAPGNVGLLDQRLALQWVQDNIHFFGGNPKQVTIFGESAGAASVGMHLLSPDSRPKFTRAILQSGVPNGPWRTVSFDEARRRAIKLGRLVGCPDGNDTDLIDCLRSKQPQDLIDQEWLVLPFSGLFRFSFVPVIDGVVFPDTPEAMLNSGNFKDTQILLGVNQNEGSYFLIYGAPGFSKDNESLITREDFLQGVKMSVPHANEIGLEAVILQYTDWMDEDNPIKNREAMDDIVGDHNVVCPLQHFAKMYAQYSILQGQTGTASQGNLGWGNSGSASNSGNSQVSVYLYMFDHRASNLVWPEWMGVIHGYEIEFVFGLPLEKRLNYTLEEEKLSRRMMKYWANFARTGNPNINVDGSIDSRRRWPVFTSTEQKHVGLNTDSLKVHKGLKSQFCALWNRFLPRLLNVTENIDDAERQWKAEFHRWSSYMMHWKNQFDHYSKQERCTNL

In the case of `CCN(CCCCOc1ccc(/C=C/C(=O)c2c(O)cc(OC)c(OC)c2OC)cc1)Cc1ccccc1OC` [Compound 9d, (E)-3-(4-(4-(ethyl(2-methoxybenzyl)amino)butoxy)phenyl)-1-(6-hydroxy-2,3,4-trimethoxyphenyl)prop-2-en-1-one], the IC50 (as a rule, the concentration at which inhibition is half-maximal) is 0.32 ± 0.02 µM in [1]; 1.2 ± 0.01 µM in [2]; 451 ± 1.68 µM in data set [3]; 12.3 ± 0.08 µM in [9]; 38.2 ± 0.63 µM in data set [10]. The “SI = Selectivity index = IC50 (BuChE)/IC50 (AChE)” value in [1] is listed as 1409.4. Besides, the ORAC in [4] is recorded as 1.01 ± 0.2 μM of Trolox equivalent/μM of compounds. In data set [4] (Trolox equivalents), the ORAC-FL value is on record as 0.96 eq. The values for the inhibition at 25 µM in data set [5] and in data set [6] were 72.7 ± 0.02% and 72.4 ± 0.01%, respectively. For the same compound, the “Disaggregation of Aβ1–42 aggregation (%) Self-induced” value (from here on “Disaggregation … (%) Self-induced”) in data set [7] is 33.0 ± 0.08%. Further, the “Disaggregation of Aβ1–42 aggregation (%) Cu^2+-induced” value (shortened to “Disaggregation … (%) Cu^2+-induced”) in data set [8] is 63.2 ± 0.63%. Also, the “SI = selectivity index = IC50 (hMAO-A)/IC50 (hMAO-B)” value in data set [9] is 3.1. In data set [11], the “shift of characteristic UV peak after adding FeSO4 and ZnCl2” value is on record as “no obvious shift”. The “characteristic UV peak after adding AlCl3 (red shift)” value in [11] (setting [13]) was determined as 376 nm. Moreover, in data set [11] (setting [13]), the “characteristic UV peak after adding CuCl2 (red shift)” value stood at 444 nm.

As for `COc1ccccc1CN(C)CCCOc1ccc(/C=C/C(=O)c2c(O)cc(OC)c(O)c2OC)cc1` [Compound 17a, (E)-1-(3,6-dihydroxy-2,4-dimethoxyphenyl)-3-(4-(3-((2-methoxybenzyl)(methyl)amino)propoxy)phenyl)prop-2-en-1-one], the IC50 in data set [1] is 3.45 ± 0.03 µM; in data set [2] it was 2.3 ± 0.01 µM; in data set [3], 326 ± 10.7 µM. For the same compound, in data set [1], the “SI = Selectivity index = IC50 (BuChE)/IC50 (AChE)” value is reported as 94.5. For the same compound, the ORAC in data set [4] is given as 3.1 ± 0.02 μM of Trolox equivalent/μM of compounds. Besides, the results for the inhibition at 25 µM in [5] and in data set [6] were 67.4 ± 0.04% and 91.1 ± 0.01%, respectively. Further, the “Disaggregation … (%) Self-induced” value in data set [7] was 29.9 ± 0.03%. The “Disaggregation … (%) Cu^2+-induced” value in data set [8] is recorded as 84.6 ± 0.03%. For the same compound, the inhibition (as a rule, how much of the control response was suppressed) at 10 µM in [9] came to 4.4%; in data set [10], 18.2%.

In the case of `CCN(CCCOc1ccc(/C=C/C(=O)c2c(O)cc(OC)c(O)c2OC)cc1)Cc1ccccc1OC` [Compound 17b, (E)-1-(3,6-dihydroxy-2,4-dimethoxyphenyl)-3-(4-(3-(ethyl(2-methoxybenzyl)amino)propoxy)phenyl)prop-2-en-1-one], the IC50 in data set [1] is 0.73 ± 0.01 µM; in data set [2], 3.16 ± 0.02 µM; in data set [3] it was 155 ± 5.8 µM. The “SI = Selectivity index = IC50 (BuChE)/IC50 (AChE)” value in data set [1] amounted to 212.3. The ORAC in data set [4] is recorded as 2.9 ± 0.02 μM of Trolox equivalent/μM of compounds. The inhibition at 25 µM in data set [5] came out at 82.1 ± 0.01%; in data set [6] it was 90.2 ± 0.02%. Further, the “Disaggregation … (%) Self-induced” value in [7] is given as 60.2 ± 0.03%. Also, the “Disaggregation … (%) Cu^2+-induced” value in [8] was determined as 82.8 ± 0.03%. In addition, the inhibition at 10 µM in [9] worked out at 2.1%; in data set [10], 14.6%.

With `COc1ccccc1CN(C)CCCCOc1ccc(/C=C/C(=O)c2c(O)cc(OC)c(O)c2OC)cc1` [Compound 17c, (E)-1-(3,6-dihydroxy-2,4-dimethoxyphenyl)-3-(4-(4-((2-methoxybenzyl)(methyl)amino)butoxy)phenyl)prop-2-en-1-one], the IC50 is 1.63 ± 0.02 µM in data set [1], 3.74 ± 0.03 µM in data set [2], > 500 µM in data set [3] and 18.3 ± 0.15 µM in [10]. The “SI = Selectivity index = IC50 (BuChE)/IC50 (AChE)” value in [1] was >306.7. Moreover, the ORAC in [4] is listed as 2.8 ± 0.01 μM of Trolox equivalent/μM of compounds. The inhibition at 25 µM in data set [5] worked out at 68.4 ± 0.02%; in data set [6], 92.5 ± 0.03%. The “Disaggregation … (%) Self-induced” value in data set [7] is listed as 75.9 ± 0.03%. Further, the “Disaggregation … (%) Cu^2+-induced” value in [8] stood at 79.1 ± 0.15%. Further, the inhibition at 10 µM in data set [9] stood at 11%.

Consider `CCN(CCCCOc1ccc(/C=C/C(=O)c2c(O)cc(OC)c(O)c2OC)cc1)Cc1ccccc1OC` [Compound 17d, (E)-1-(3,6-dihydroxy-2,4-dimethoxyphenyl)-3-(4-(4-(ethyl(2-methoxybenzyl)amino)butoxy)phenyl)prop-2-en-1-one], for which the IC50 in data set [1] amounted to 0.58 ± 0.01 µM; in [2], 3.68 ± 0.02 µM; in [3], 406 ± 15.2 µM; in [9] it was 15.1 ± 0.16 µM. Further, the “SI = Selectivity index = IC50 (BuChE)/IC50 (AChE)” value in data set [1] came to 700. Further, the ORAC in [4] was 3.1 ± 0.01 μM of Trolox equivalent/μM of compounds. Moreover, the values for the inhibition at 25 µM in data set [5] and in data set [6] were 73.8 ± 0.01% and 91.7 ± 0.02%, respectively. The “Disaggregation … (%) Self-induced” value in data set [7] was 45.7 ± 0.16%. Moreover, the “Disaggregation … (%) Cu^2+-induced” value in data set [8] is 79.8 ± 0.03%. In data set [10], the inhibition at 10 µM turned out to be 16.7%.

Take `COc1ccccc1CN(C)CCCCCCOc1ccc(/C=C/C(=O)c2c(O)cc(OC)c(O)c2OC)cc1` [Compound 17e, (E)-1-(3,6-dihydroxy-2,4-dimethoxyphenyl)-3-(4-((6-((2-methoxybenzyl)(methyl)amino)hexyl)oxy)phenyl)prop-2-en-1-one]: the IC50 in data set [1] was 1.4 ± 0.02 µM; in [2], 2.16 ± 0.01 µM; in data set [3], > 500 µM; in data set [9], 12.8 ± 0.31 µM. For the same compound, the “SI = Selectivity index = IC50 (BuChE)/IC50 (AChE)” value in data set [1] was >357.1. Moreover, the ORAC in data set [4] is on record as 3.4 ± 0.02 μM of Trolox equivalent/μM of compounds. Moreover, the inhibition at 25 µM in [5] is 65.7 ± 0.03%; in data set [6], 96.2 ± 0.02%. The “Disaggregation … (%) Self-induced” value in data set [7] is given as 74.8 ± 0.31%. Besides, in [8], the “Disaggregation … (%) Cu^2+-induced” value came to 83.7 ± 0.03%. Also, the inhibition at 10 µM in [10] is 17.9%.

With `Cc1c(C)c2c(c(C)c1O)CC[C@@](C)(CCC[C@H](C)CCC[C@H](C)CCCC(C)C)O2` [Vitamin E, α-tocopherol, reference compound], in data set [4], the ORAC was 2.6 ± 0.06 μM of Trolox equivalent/μM of compounds. In addition, in data set [12], the LDH vitality is given as 654.7.
